The text below walks through data of ChEMBL document CHEMBL2440060, “Identification of a Novel and Selective Series of Itk Inhibitors via a Template-Hopping Strategy” (ACS Med Chem Lett, 2013).

pIC50, pKi: −log10 of the molar value.

Experiment [1] has as its target T1, Tyrosine-protein kinase Lck (Homo sapiens, UniProt P06239). Kind of experiment: Inhibition of LCK (unknown origin) using tamra-p34cdc-derived peptide as substrate after 30 mins.
For experiment [2], the target named is T2, Tyrosine-protein kinase ITK/TSK (Homo sapiens, UniProt Q08881).
T2 sequence (Q08881 whole entry): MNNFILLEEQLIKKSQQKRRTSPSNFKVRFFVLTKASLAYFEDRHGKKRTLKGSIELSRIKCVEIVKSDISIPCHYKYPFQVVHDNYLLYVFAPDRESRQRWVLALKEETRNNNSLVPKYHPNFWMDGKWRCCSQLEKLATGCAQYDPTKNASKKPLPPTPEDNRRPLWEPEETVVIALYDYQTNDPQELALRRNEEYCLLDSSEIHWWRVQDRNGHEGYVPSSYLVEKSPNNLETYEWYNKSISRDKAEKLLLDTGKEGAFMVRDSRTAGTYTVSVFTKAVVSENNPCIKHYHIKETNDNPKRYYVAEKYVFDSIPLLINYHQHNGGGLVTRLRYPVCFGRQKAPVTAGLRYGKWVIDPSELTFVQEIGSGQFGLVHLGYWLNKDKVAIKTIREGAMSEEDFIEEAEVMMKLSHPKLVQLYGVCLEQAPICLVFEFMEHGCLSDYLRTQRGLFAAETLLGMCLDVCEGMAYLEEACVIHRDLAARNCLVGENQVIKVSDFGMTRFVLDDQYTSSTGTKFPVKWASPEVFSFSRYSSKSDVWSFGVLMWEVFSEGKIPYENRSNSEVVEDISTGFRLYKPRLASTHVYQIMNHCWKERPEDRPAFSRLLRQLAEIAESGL
Kind of experiment: Inhibition of recombinant human FLAG-tagged ITK using biotinylated GST-SAM68 as substrate after 30 mins.

In experiment [3] the test system is PBMC. Kind of experiment: Inhibition of cytostim-induced IFNgamma production in human PBMC treated 1 hr before cytostim stimulation measured after 18 hrs by MSD assay. Type of experiment: functional, cell-based.
The target in experiment [4] is T3, Aurora kinase B (Homo sapiens, UniProt Q96GD4). Kind of experiment: Inhibition of Aurora-B (unknown origin) using 5FAM-PKAtide as substrate after 120 mins.
T3 sequence (Q96GD4 whole entry): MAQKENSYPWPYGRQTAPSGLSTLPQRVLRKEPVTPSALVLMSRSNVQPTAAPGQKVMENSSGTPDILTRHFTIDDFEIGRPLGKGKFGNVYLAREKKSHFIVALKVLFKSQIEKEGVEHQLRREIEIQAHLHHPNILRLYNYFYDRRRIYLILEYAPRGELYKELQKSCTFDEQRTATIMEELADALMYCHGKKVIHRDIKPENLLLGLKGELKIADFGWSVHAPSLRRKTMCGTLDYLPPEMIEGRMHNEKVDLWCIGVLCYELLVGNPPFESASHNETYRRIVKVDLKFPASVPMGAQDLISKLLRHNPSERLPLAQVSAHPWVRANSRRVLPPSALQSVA
Experiment [5] has as its target Insulin receptor (Homo sapiens, UniProt P06213). Briefly: Inhibition of IR (unknown origin).
Experiment [6] addresses Tyrosine-protein kinase BTK (Homo sapiens, UniProt Q06187). Kind of experiment: Inhibition of Btk (unknown origin).
Experiment [7] concerns the target T1, Tyrosine-protein kinase Lck. Briefly: Inhibition of LCK (unknown origin).
Experiment [8] addresses Epidermal growth factor receptor (Homo sapiens, UniProt P00533). Kind of experiment: Inhibition of EGFR (unknown origin).
Experiment [9] deals with T4, Interleukin-1 receptor-associated kinase 4 (Homo sapiens, UniProt Q9NWZ3).
T4 sequence (Q9NWZ3 whole entry): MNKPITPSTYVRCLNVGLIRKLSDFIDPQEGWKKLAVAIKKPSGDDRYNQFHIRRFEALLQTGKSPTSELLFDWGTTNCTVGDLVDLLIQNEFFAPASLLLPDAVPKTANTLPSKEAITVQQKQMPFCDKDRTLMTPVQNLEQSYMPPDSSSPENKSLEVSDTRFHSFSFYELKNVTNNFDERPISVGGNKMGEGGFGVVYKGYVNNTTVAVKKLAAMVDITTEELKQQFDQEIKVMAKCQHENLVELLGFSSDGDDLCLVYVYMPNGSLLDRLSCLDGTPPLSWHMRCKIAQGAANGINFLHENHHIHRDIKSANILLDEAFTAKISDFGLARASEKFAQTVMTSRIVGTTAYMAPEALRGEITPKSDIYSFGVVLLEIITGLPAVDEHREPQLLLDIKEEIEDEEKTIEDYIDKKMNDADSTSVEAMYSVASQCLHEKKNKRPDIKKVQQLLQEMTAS
Kind of experiment: Inhibition of IRAK4 (unknown origin).

The target of experiment [10] is Proto-oncogene tyrosine-protein kinase Src (Homo sapiens, UniProt P12931). Kind of experiment: Inhibition of Src (unknown origin).
The target of experiment [11] is Leucine-rich repeat serine/threonine-protein kinase 2 (Homo sapiens, UniProt Q5S007). Briefly: Inhibition of LRRK2 (unknown origin).
Sequence of Leucine-rich repeat serine/threonine-protein kinase 2 (Q5S007 whole entry): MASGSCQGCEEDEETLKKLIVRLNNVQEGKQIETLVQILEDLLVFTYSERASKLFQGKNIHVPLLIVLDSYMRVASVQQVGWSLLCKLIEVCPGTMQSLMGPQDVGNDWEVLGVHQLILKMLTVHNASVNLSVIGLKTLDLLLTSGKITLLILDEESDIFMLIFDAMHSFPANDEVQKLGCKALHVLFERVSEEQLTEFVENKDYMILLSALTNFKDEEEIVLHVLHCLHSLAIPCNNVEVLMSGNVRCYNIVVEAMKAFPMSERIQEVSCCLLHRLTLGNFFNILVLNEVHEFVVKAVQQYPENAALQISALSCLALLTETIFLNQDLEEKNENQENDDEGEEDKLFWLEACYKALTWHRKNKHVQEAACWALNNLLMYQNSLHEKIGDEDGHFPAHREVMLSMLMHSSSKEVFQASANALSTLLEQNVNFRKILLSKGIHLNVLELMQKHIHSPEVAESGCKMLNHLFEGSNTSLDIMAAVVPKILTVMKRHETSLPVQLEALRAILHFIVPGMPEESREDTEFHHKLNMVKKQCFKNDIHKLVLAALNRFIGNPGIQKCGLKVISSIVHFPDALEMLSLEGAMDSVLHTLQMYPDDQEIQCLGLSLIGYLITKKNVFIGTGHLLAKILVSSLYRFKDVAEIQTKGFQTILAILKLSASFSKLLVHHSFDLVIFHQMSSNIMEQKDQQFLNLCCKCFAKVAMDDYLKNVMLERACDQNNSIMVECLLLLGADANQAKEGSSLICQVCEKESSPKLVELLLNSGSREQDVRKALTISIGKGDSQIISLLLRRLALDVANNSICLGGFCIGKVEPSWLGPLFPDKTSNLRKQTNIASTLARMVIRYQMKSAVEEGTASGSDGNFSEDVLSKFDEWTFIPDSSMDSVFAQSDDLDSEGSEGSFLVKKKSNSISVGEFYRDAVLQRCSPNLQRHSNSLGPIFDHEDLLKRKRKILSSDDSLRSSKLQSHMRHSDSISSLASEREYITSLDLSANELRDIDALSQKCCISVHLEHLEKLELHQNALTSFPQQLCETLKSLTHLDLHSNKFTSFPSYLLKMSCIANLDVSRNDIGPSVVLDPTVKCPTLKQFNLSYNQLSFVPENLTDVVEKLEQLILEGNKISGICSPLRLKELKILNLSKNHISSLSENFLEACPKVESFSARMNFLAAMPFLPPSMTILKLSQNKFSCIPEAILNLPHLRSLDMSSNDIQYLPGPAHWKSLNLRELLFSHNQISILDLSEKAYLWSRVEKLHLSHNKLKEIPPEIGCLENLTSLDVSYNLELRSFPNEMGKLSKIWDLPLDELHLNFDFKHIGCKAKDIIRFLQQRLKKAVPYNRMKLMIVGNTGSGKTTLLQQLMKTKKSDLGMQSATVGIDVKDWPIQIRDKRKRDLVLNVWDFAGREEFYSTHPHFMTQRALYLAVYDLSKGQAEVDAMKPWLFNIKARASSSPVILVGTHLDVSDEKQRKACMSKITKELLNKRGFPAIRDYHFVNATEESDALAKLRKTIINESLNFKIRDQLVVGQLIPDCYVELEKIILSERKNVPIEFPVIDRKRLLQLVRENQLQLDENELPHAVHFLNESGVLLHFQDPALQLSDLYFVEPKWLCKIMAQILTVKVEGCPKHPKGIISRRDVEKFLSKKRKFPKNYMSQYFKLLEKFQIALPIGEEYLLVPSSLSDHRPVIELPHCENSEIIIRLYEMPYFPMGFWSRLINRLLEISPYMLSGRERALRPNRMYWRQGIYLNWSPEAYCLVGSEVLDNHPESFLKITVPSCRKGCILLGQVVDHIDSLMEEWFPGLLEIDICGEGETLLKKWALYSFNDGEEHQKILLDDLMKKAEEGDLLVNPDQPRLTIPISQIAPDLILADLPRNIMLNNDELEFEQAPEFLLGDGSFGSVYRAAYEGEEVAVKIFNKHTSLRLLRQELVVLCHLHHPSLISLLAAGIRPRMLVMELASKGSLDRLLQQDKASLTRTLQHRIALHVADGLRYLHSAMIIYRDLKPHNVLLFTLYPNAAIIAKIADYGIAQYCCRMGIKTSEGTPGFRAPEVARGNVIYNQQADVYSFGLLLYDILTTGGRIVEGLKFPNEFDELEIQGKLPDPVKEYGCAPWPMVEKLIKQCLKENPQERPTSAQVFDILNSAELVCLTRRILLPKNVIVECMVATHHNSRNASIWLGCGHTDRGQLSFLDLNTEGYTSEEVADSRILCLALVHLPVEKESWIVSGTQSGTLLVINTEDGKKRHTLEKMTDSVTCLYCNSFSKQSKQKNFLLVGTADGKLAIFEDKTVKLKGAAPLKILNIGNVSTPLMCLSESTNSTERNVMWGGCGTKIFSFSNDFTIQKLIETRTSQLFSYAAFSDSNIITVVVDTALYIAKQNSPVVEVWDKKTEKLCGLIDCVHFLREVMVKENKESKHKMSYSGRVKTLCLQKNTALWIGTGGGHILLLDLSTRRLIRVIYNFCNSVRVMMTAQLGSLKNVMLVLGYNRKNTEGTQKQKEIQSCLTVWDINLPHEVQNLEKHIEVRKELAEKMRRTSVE
Experiment [12] has as its target T5, Tyrosine-protein kinase Tec (Homo sapiens, UniProt P42680).
T5 sequence (P42680 whole entry): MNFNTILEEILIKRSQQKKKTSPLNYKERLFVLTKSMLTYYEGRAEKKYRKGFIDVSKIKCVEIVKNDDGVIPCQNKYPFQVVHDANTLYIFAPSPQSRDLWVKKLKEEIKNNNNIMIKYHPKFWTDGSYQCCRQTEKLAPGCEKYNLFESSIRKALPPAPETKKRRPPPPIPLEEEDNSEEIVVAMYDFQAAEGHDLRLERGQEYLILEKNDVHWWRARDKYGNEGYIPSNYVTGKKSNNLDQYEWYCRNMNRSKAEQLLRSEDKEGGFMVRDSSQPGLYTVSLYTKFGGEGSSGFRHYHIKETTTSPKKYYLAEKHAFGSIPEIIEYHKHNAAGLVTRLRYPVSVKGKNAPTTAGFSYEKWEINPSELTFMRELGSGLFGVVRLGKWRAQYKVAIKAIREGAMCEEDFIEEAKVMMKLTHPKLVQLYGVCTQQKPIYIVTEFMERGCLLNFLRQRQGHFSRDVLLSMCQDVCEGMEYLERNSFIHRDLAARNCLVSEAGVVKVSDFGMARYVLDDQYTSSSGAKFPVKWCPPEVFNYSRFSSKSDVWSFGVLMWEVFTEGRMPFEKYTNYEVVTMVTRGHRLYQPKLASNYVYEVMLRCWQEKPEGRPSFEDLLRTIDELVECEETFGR
Kind of experiment: Inhibition of Tec (unknown origin).

In experiment [13] the target is T6, Tyrosine-protein kinase TXK (Homo sapiens, UniProt P42681).
T6 sequence (P42681 whole entry): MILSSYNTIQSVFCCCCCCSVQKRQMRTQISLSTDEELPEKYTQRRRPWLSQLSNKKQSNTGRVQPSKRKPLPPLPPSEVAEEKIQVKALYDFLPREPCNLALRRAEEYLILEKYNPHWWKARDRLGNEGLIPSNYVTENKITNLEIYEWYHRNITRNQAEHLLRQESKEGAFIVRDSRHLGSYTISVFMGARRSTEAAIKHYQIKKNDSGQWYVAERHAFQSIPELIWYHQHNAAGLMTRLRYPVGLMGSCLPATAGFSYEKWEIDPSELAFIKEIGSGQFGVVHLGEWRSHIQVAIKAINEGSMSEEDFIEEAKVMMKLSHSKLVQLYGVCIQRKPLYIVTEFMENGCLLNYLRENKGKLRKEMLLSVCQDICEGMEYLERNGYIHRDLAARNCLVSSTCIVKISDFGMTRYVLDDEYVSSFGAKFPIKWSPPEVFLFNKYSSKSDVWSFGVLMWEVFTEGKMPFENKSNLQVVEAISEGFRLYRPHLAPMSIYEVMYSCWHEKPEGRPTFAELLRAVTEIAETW
Kind of experiment: Inhibition of TXK (unknown origin).

The target of experiment [14] is T3, Aurora kinase B. Briefly: Inhibition of Aurora-B (unknown origin).
Experiment [15] concerns the target T7, Cytoplasmic tyrosine-protein kinase BMX (Homo sapiens, UniProt P51813).
T7 sequence (P51813 whole entry): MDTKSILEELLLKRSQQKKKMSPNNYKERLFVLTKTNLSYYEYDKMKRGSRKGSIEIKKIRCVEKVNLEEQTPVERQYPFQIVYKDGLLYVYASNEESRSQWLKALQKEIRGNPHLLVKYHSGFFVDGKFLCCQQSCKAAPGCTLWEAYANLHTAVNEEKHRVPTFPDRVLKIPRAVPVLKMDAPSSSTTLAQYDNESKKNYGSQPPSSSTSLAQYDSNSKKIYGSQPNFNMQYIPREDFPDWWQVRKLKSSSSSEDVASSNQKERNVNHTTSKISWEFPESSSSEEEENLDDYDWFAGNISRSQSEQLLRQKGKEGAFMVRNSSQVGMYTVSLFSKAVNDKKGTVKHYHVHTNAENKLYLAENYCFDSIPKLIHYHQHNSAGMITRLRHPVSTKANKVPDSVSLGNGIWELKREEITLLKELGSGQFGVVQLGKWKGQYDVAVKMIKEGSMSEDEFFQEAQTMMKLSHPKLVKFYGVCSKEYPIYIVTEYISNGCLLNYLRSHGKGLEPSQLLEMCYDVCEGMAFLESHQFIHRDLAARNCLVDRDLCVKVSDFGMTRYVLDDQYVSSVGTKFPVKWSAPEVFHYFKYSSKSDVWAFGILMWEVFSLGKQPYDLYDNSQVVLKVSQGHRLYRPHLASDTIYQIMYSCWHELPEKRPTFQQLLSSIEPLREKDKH
Briefly: Inhibition of Bmx (unknown origin).

The target in experiment [16] is Calcium/calmodulin-dependent protein kinase kinase 2 (Homo sapiens, UniProt Q96RR4). Kind of experiment: Inhibition of CAMKK2 (unknown origin).
The target of experiment [17] is T2, Tyrosine-protein kinase ITK/TSK. Briefly: Inhibition of ITK (unknown origin).

T1 sequence (P06239 whole entry): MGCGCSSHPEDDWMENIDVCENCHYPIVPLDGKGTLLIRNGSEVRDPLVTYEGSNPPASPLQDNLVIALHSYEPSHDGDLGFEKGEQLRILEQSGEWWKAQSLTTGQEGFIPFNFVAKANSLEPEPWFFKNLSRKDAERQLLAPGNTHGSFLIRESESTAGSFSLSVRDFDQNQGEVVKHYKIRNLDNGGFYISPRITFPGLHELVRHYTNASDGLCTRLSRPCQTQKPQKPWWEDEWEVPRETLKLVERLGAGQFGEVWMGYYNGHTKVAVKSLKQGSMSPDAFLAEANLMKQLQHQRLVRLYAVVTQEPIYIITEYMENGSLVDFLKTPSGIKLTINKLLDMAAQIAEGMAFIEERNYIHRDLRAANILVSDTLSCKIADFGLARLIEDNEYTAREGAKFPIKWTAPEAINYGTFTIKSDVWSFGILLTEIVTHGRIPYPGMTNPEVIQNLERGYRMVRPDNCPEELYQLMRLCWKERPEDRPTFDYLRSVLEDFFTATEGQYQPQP
Sequence of Insulin receptor (P06213 28-758 limits assumed): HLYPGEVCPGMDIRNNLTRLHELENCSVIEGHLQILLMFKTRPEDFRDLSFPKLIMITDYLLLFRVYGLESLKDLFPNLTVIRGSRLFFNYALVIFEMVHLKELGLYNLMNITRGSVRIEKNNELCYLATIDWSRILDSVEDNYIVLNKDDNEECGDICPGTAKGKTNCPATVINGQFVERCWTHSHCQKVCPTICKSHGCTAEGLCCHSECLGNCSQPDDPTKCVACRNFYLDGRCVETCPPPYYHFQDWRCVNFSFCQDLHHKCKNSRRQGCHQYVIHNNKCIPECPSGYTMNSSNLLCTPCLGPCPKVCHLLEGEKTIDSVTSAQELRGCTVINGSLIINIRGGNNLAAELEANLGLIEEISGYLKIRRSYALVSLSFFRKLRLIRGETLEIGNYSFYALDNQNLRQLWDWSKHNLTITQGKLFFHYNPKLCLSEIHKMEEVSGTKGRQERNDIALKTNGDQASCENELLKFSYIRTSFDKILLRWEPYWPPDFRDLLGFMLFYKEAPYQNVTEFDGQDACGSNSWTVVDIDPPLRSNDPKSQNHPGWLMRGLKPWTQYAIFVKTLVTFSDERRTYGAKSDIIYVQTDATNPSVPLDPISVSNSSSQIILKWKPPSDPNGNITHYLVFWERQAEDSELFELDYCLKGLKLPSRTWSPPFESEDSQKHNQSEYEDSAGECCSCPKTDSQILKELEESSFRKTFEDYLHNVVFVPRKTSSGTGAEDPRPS
Sequence of Insulin receptor (P06213 763-1382 limits assumed): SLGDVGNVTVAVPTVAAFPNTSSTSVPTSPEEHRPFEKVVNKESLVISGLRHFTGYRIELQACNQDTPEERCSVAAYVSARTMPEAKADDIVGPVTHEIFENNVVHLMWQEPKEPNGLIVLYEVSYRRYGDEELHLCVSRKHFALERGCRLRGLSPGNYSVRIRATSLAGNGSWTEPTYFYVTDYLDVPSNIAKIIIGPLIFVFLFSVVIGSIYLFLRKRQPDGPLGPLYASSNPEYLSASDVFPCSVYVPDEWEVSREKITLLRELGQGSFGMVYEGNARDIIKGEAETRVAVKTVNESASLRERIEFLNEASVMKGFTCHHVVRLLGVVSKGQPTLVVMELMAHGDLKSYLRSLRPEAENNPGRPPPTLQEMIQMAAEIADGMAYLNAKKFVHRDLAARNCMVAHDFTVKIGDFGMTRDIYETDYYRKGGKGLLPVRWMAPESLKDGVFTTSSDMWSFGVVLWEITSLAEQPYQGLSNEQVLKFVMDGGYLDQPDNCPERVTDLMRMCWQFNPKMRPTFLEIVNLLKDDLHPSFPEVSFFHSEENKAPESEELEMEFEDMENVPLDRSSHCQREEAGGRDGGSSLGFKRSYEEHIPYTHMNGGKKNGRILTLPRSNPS

One may read the pKi as the negative decadic logarithm of the Ki, by convention in mol/L. What is called pIC50 is the negative decadic logarithm of the IC50, by convention in mol/L. Take `COc1ccc2nc(Nc3cc(Cc4ccccc4)nc(N[C@H]4CC[C@H](O)CC4)n3)sc2c1`: the pKi in experiment [1] is 6.90; in experiment [2], 8.40; in experiment [4], 6.30. This molecule also gave a pIC50 in experiment [3] of 7.60.
On to `CCc1ccc2nc(Nc3cc(Cc4ccccc4)nc(N[C@H]4CC[C@H](O)CC4)n3)sc2c1`, for which the pKi in experiment [1] is 7.00; in experiment [2], 9.20; in experiment [4], 6.40. For the same molecule, the pIC50 in [5] was 6.80; in [6] it was 6.50; in [7], 6.90; in [8], 6.20; in experiment [9], 8.40; in experiment [3], 7.30. Also, the pIC50 in experiment [10] is 7.40; in [11], 6.40; in experiment [12], 6.60; in [13], 7.10; in experiment [14], 6.40; in experiment [15], 6.80. Moreover, the pIC50 in [16] is 6.70.
On to `NC(=O)C1CCN1c1nc(Cc2ccccc2)cc(Nc2cc(C3CCC3)n[nH]2)n1` (stereo unspecified), for which the pKi in [7] is 6.30; in experiment [17], 7.80; in experiment [14], 7.10.
With `CS(=O)(=O)N1CCOC(CNc2nc(Cc3ccccc3)cc(Nc3cc(-c4ccco4)n[nH]3)n2)C1` (stereo unspecified), the pKi in experiment [7] is 6.30; in experiment [17], 8.20; in [14] it was 6.50.
